Assays:
C57B/6J mice = assay: Treadmill running endurance test; type: in vivo, mouse
Experimental: Mice were acclimated to moderate treadmill running (10 m/min for 15 min) every other day for 1 week. After acclimation, basal running endurance was determined by placing each mouse on a treadmill, gradually increasing the speed from 0 to 15 m/min, and maintaining 15 m/min until the mouse was exhausted. The time and distance run until exhaustion were recorded as the basal endurance values (Week 0).
Treatments were administered orally.
Expression of biomarkers characteristic of an oxidative phenotype in skeletal muscle, typically, has been correlated with increased oxidative performance (e.g., increased running endurance) of such skeletal muscle. […] Accordingly, to determine the functional effects of ligand, age and weight matched cohorts of treated and control mice were subjected to an endurance treadmill performance test before (week 0) and after (week 5) treatment.
In addition to affecting the contractile apparatus of skeletal muscle, exercise training also increases skeletal muscle mitochondrial density (e.g., Freyssenet et al., Arch. Physiol. Biochem., 104(2): 129-141, 1996). […] Mice in all groups were acclimated to moderate treadmill running and basal running endurance was determined as described in Example 1. Thereafter, mice in the exercise-trained groups received four weeks (5 days/week) of exercise training on a treadmill inclined at 5 degrees. […] At the end of four weeks, all exercise-trained mice were running for 50 min/day at 18 m/min. […] Unless otherwise noted, V, GW, Tr and GW+Tr subjects described in this and the examples below were similarly treated. At the end of the drug treatment and/or training protocol (Week 5) 6 mice per group were subjected to the running test. […] RNA was prepared real time quantitative PCR performed as described in Example 1.
At the end of the drug treatment and/or training protocol (Week 5) 6 mice per group were subjected to the running test.
At the end of the drug treatment and/or training protocol (Week 5), running endurance of six mice per group was determined in the same manner as was basal running endurance. […] on three mice in each group to confirm that changes observed in the skeletal muscle were not due to the acute run, but were related to the exercise training.

mitochondrial DNA = assay: Mitochondrial DNA expression by QPCR; type: in vivo, mouse
Experimental: In addition to its effects on the fiber type, exercise training increased skeletal muscle mitochondrial biogenesis, which can be measured as a function of mitochondrial DNA expression levels using quantitative real time PCR (QPCR). Mitochondrial DNA expression levels were determined in muscles of V, GW, Tr, and GW+Tr subjects using quantitative real time PCR. […] Such an increase is known to contribute to enhanced endurance capacity (e.g., Holloszy, Med. Sci. Sports 7:155-64, 1975). Slow-twitch and fast-twitch muscle fiber types also can be distinguished by myosin isoform expression (Gauthier and Lowey, J. Cell Biol. 81:10-25, 1979; Fitzsimons and Hoh, Biochem. J. 193:229-33, 1981). […] Therefore, at least at the transcriptional level, the PPARδ agonist was capable of inducing some proteins characteristic of a slow-twitch muscle fiber phenotype.

[1] = 4 weeks exercise training + GW1516, Week 5

Cc1cc(SCc2sc(-c3ccc(C(F)(F)F)cc3)nc2C)ccc1OCC(=O)O [GW1516, (2-methyl-4(((4-methyl-2-(4-trifluoromethylphenyl)-1,3-thiazol-5-yl)methyl)sulfanyl)phenoxy)acetic acid]
increase in running distance over vehicle-treated trained mice (C57B/6J mice; [1]): 70%
increase in running time over vehicle-treated trained mice (C57B/6J mice; [1]): 68%
run longer and further than nontreated controls (C57B/6J mice; combined with exercise training): 60%-75%
increment in endurance capacity, week 5 vs week 0 (C57B/6J mice; exercise and drug treatment, individual mice): 100%
time spent or distance run on the treadmill prior to exhaustion vs controls (C57B/6J mice; sedentary mice, 5 mg/kg oral once per day, 4 weeks): did not significantly differ
running endurance (C57B/6J mice; sedentary mice, long-term treatment up to 5 months): did not change
increase in mitochondrial DNA expression (mitochondrial DNA; combination of exercise and GW1516): approximately 50%
mitochondrial DNA expression (mitochondrial DNA; drug alone): not changed

Source: patent US9192601B2, “Methods for enhancing muscle performance and tone” (Salk Institute for Biological Studies, priority 2006, dated 2015)
